In patent US10188689B2, “Method and composition for treating breast cancer” (STELLENBOSCH UNIVERSITY, priority 2014, dated 2019):

System: Phospho-ser15-p53
Assay: Western blot of tumours from treated mice: phospho-ser15-p53
Format: in vivo, C57BL6 mice
Conditions: tumours of Dox treated mice, seven days
Protocol: Following the weighing and grouping of mice, treatment with D. viscosa extract commenced. Tumour size was measured every two days by taking measurements in two perpendicular dimensions using digital calipers. The D. viscosa extract was administered through raspberry flavoured jelly blocks. Mice were conditioned to the taste of the jelly four days before treatment began. Human dosage (5.24 mg/kg/day) and the Km factor were used for dose translation based on body surface area to calculate animal dosage to be administered (Reagan-Shaw et al., 2007). On the day of treatment, mice were put in separate cages and given a 1 cm×1 cm block of jelly injected with 146 μL extract per jelly block (0.065 mg/g average bodyweight) at dusk every day, for a period of seven days. The day after the last treatment, mice were sacrificed by decapitation, where after tumours were harvested and frozen at −80° C. until needed.
Protein extraction from cells took place after the 24 hour treatment period. The medium was aspirated and the flasks were placed on ice. […] Cell lysates were then centrifuged at room temperature for 10 minutes at 8000 rpm, where after the protein content of each lysate was determined using the Bradford method (Bradford, 1976). […] After extraction protein content was determined with the Bradford method (Bradford, 1976) and stored at −80° C. until analysis, […]

SMILES: COc1cccc2c1C(=O)c1c(O)c3c(c(O)c1C2=O)C[C@@](O)(C(=O)CO)C[C@@H]3O[C@H]1C[C@H](N)[C@H](O)[C@H](C)O1 [Dox, doxorubicin]
- level of p53 in tumours (ratio of phospho-ser15-p53 to total p53): 5.3±1.016 fold increase relative to cont
